What was measured:
[1] = test system: MCF10A cells; type: cell-based
[2] = test system: EGFR dependent mammary gland tumors of WAP-TGFα mice; assay: Tumor regression study in WAP-TGFα transgenic mice; type: in vivo, mouse
Excerpt: Mice were bred continuously to induce transgene expression and palpated weekly for tumor formation. […] A. Changes in tumor size from entry into study until end of study are shown for each individual tumor, (*) indicate tumors that entered the study at size greater than 500 mm^3, all other tumors entered the study at ˜100 mm^3. B. a Kaplan-Meier survival curve was generated showing when mice were sacrificed by either reaching tumor burden (2000 mm^3) or the end of the study (p=0.0002). C. Upon sacrifice tumors were harvested and fixed in 10% formalin and embedded in paraffin. Slides were stained with hematoxylin and eosin and imaged at 20×. D. Protein lysates were generated from tumors upon sacrifice and probed for the indicated proteins.
C. […] D. Cells were treated similarly as in C., fractionated and evaluated for protein localization by immunoblot.
Mice are continually bred to activate the pregnancy-dependent WAP promoter, which drives expression of the EGFR ligand Transforming Growth Factor alpha (TGFα) strictly to the mouse mammary glands. This model stochastically forms unifocal mammary adenocarcinomas through a process that begins with mammary hyperplasia, followed by tumor formation over approximately 8 months. […] No difference in weight or behavior or grooming was observed. Therefore 10 μg/g body weight was used for subsequent studies.
When tumors reached >100 mm^3, IV injections began at 3×/week, 10 μg/g body weight and tumors were measured 3×/week with calipers. Animals were injected for 4 weeks or until they reached maximal tumor burden, defined as a single tumor measuring 2000 mm^3. […] The WAP-TGFα is a spontaneous model in which each tumor arises and progresses in a heterogeneous fashion. Each tumor was evaluated separately to determine the overall impact of SNX1.3 treatment (FIG. 3A). […] In this study, mice were sacrificed after 4 weeks of injections or once they reached tumor burden, represented by the Kaplin-Meyer graph (FIG. 3B).

[3] = test system: MDA-MB-468 cells; type: cell-based, human
Protocol: A. Peptide sequence alignment of modified and stabilized peptides (−) indicates conserved residues, (/) indicates a deleted residue. Modified residues used for staples are (S)-2-(((9H-flouren-9-yl) methoxy) caronylamino)-2-methyl-hept-6-enoic acid (5) and (R)-2-(((9H-flouren-9-yl) methoxy) caronylamino)-2-methyl-dec-9-enoic acid (8). PTD4=Protein Transduction Domain. Ac=acetylation of 5′ end and NH2=amidation of 3′ end. B. MDA-MB-468 cells were treated with 10 μM of the indicated peptide for 3 days. Cell viability was measured using an MTT assay. Vehicle control represents 100%. C. A predicted peptide structure of SNX1.3 was generated using SWISSMODEL with negative (blue) and positive (red) residues highlighted.
B. MDA-MD-468 cells were transduced with an IPTG inducible shEGFR targeted against the 3′ UTR of EGFR. These cells were incubated with IPTG for the indicated number of days and lysates were generated to confirm knock down of EGFR. C. In tandem with B., cells were plated and incubated +/−IPTG for 2 days prior to drug treatment. […] After 5 days of IPTG and 3 days of peptide treatment viability was measured using an MTT assay.
Predicted peptide structure including negatively (blue) and positively (red) charged residues was used to guide the modifications (FIG. 2C).

[4] = test system: MDA-MB-468 cells; assay: Bulk RNAseq of treated MDA-MB-468 cells; type: cell-based, human; conditions: MDA-MB-468, bulk RNAseq in triplicate
Protocol: C. WAP-TGFα tumors treated with either SNX1.3 or cPTD4 were analyzed for NK cells using an anti-NKp46 antibody. Inset is 20×.
A-C. […] A. A gene ontology enrichment bubble plot was produced, and the top 30 enriched GO terms are shown. Color indicates −1*log 10(FDR) for significance of overlap (the higher the more significant). X axis=log odds ratio for genes annotated to that GO term. […] C. RT-PCR analysis of IL1RL1.
In addition to bioinformatics identification of CTLs in these tumors, similar analysis implicated recruitment of NK cells as well (FIG. 9). As a part of the innate immune system, NK cells should only be recruited if a change has occurred to display NK-activating antigens. While there are many such antigens expressed under a variety of immune modulation conditions, some are highly associated with activation of NK cells against cancers, such as ULBP2/3 or MICA/MICB32.
A significant impact on the immune response, especially IL-1 dependent pathways was identified (FIG. 12A). IL-1-specific genes were searched and an upregulation in several IL1R genes, including IL1R2, IL1RL1, IL1RL2, IL1RAP and IL1RN (FIG. 12B) were found. […] It is hypothesized that the transient and targeted activation of the IL1/TLR pathway in the tumors may allow for the immune system to become active where previously these tumors were immune suppressive. […]

[5] = target: EGFR kinase domain / SNX1 Bar domain (Homo sapiens, UniProt P00533); assay: MST binding of EGFR kinase domain with SNX1 Bar domain and peptides; conditions: EGFR kinase domain 50 nM
Sequence of EGFR kinase domain / SNX1 Bar domain (P00533 712-979 limits assumed): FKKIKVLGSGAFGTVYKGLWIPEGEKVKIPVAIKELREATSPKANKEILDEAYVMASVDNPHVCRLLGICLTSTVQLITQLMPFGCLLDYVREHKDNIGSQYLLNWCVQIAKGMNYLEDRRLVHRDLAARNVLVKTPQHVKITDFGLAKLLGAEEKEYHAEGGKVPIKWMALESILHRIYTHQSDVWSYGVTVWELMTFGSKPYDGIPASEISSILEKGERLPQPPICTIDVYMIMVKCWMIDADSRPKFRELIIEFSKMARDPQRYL

[6] = 10 μg/g IV 3×/week, first to last measurement

CC[C@H](C)[C@H](NC(=O)[C@@H](NC(=O)[C@H](Cc1c[nH]cn1)NC(=O)[C@H](CC(N)=O)NC(=O)[C@H](CCCCN)NC(=O)[C@H](C)NC(=O)[C@H](CCCNC(=N)N)NC(=O)[C@H](C)NC(=O)[C@H](CCC(N)=O)NC(=O)[C@H](CCCNC(=N)N)NC(=O)[C@H](C)NC(=O)[C@H](C)NC(=O)[C@H](C)NC(=O)[C@H](CCCNC(=N)N)NC(=O)[C@H](C)NC(=O)[C@H](Cc1ccc(O)cc1)NC(C)=O)C(C)C)C(=O)N[C@@H](CCCCN)C(=O)N[C@@H](Cc1ccc(O)cc1)C(=O)N[C@@H](CC(C)C)C(=O)N[C@@H](CCC(=O)O)C(=O)N[C@H](C(=O)N[C@@H](CC(C)C)C(=O)N[C@@H](CC(C)C)C(=O)N[C@@H](Cc1ccc(O)cc1)C(=O)N[C@@H](CO)C(=O)N[C@@H](CCC(N)=O)C(=O)N[C@@H](CCC(N)=O)C(=O)N[C@@H](CCC(N)=O)C(=O)N[C@@H](CC(C)C)C(=O)N[C@@H](C)C(=O)N[C@@H](CCCCN)C(=O)N[C@@H](Cc1ccc(O)cc1)C(=O)N[C@@H](Cc1c[nH]c2ccccc12)C(=O)N[C@@H](CCC(=O)O)C(=O)N[C@@H](C)C(=O)N[C@@H](Cc1ccccc1)C(=O)N[C@@H](CC(C)C)C(N)=O)[C@@H](C)O [cSNX1.3]
impact on normal immortalized cells [1]: almost no impact | mice that reached maximal tumor burden (2000 mm^3) before the end of the study ([2]; 10 μg/g IV 3×/week, 4 weeks, p=0.0002 between groups): 1/6 | tumors that regressed [2, 6]: 7/11 | tumors with no change in tumor volume [2, 6]: 2/11 | tumors that grew through the study ([2]; 10 μg/g IV 3×/week, the growing cSNX1.3 tumors entered at greater than 500 mm^3): 2 | average tumor regression ([2]; 10 μg/g body weight IV 3×/week, 4 weeks or until tumor burden, n=11 tumors): 4 mm^3/day | tumors fully regressed ([2]; measured with calipers, confirmed during necropsy): 3 | impact on animal weight ([2]; weighed throughout the study, 10 μg/g IV 3×/week): no impact | IC50 ([3]; 9 h): 7.5 µM | efficacy after C- and N-terminal peptide end-capping ([3]; MDA-MB-468, 10 μM peptide for 3 days, MTT assay): increased efficacy | inhibition of cell survival, compared with Sapitinib ([3]; MDA-MB-468, 3 days, MTT assay): more effective than Sapitinib | NK activating antigens ULBP2, ULBP3, MICA and MICB [4]: increased | PDL1 expression [4]: did not alter | binding of EGFR to SNX1 [5]: competitively inhibits
